Assay results reported in patent US8563545B2, “Compound useful for the treatment of degenerative and inflammatory diseases” (Galapagos NV, priority 2009, dated 2013).
Values joined by “and” are separate entries in the source; they are usually repeats but may differ in a detail not shown here. Equal entries are not always repeated.

How the values were obtained:
JAK1 = JAK1 (Homo sapiens (Human), UniProt P23458); assay: JAK1 inhibition assay; type: biochemical
Protocol: (§1) Plates were washed 6 times with 300 μL per well of a 75 mM phosphoric acid solution and the bottom of the plates was sealed. 40 μL/well of Microscint-20 was added, the top of the plates was sealed and readout was performed using the Topcount (Perkin Elmer). Kinase activity was calculated by subtracting counts per minute (cpm) obtained in the presence of a positive control inhibitor (10 μM staurosporine) from cpm obtained in the presence of vehicle. The ability of a test compound to inhibit this activity was determined as:
(§2) Percentage inhibition=((cpm determined for sample with test compound present−cpm determined for sample with positive control inhibitor)divided by(cpm determined in the presence of vehicle−cpm determined for sample with positive control inhibitor))*100.
Dose dilution series were prepared for the compounds enabling the testing of dose-response effects in the JAK1 assay and the calculation of the IC50 for each compound.

JAK2 = JAK2 (Homo sapiens (Human), UniProt O60674); assay: JAK2 inhibition assay; type: biochemical
Protocol: as §1, with “After 90 min at 30° C., reactions were stopped by adding of 25 μL/well of 150 mM phosphoric acid. […] Plates” for “Plates”
as §2
Dose dilution series were prepared for the compounds enabling the testing of dose-response effects in the JAK2 assay and the calculation of the IC50 for each compound.

JAK1, sequence (P23458 850-1154): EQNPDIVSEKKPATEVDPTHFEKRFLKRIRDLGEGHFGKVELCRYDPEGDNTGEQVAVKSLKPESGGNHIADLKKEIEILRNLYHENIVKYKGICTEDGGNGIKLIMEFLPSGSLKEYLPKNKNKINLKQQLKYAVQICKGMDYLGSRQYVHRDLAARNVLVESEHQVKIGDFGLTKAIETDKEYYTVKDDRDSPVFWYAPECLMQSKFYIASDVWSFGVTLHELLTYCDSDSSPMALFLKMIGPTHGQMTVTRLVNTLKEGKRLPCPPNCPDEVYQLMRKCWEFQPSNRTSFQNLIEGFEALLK
JAK2, sequence (O60674 808-1132): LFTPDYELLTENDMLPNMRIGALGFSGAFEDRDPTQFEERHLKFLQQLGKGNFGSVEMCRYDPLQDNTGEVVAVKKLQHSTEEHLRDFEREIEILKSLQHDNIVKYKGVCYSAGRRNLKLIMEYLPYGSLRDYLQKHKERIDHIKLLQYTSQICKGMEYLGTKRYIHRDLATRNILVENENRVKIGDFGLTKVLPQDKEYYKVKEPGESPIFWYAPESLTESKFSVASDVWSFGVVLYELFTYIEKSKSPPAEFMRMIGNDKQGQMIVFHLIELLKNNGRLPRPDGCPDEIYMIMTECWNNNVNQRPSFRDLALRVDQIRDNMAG

IC50 (JAK1) | IC50 (JAK2) | SMILES
291 nM |  | O=C(Nc1nc2cccc(-c3cccc(CN4CCOCC4)c3)n2n1)C1CC1 [Compound 3, N-(5-(3-(morpholinomethyl)phenyl)-[1,2,4]triazolo[1,5-a]pyridin-2-yl)cyclopropanecarboxamide]
1030 nM |  | O=C(Nc1nc2cccc(-c3ccc(N4CCOCC4)nc3)n2n1)C1CC1 [Compound 4, N-(5-(6-morpholinopyridin-3-yl)-[1,2,4]triazolo[1,5-a]pyridin-2-yl)cyclopropanecarboxamide]
1450 nM | 1760 nM | O=C(Nc1nc2cccc(-c3ccc(N4CCOCC4)cc3)n2n1)C1CC1 [Compound 5, N-(5-(4-morpholinophenyl)-[1,2,4]triazolo[1,5-a]pyridin-2-yl)cyclopropanecarboxamide]
3450 nM | 5070 nM | CN1CCN(Cc2ccc(-c3cccc4nc(NC(=O)C5CC5)nn34)cc2)CC1 [Compound 6, N-(5-(4-((4-methylpiperazin-1-yl)methyl)phenyl)-[1,2,4]triazolo [1,5-a]pyridin-2-yl) cyclopropanecarboxamide]
504 nM | 6450 nM | O=C(Nc1nc2cccc(-c3ccc(CN4CCCCC4)cc3)n2n1)C1CC1 [Compound 7, N-(5-(4-(piperidin-1-ylmethyl)phenyl)-[1,2,4]triazolo[1,5-a]pyridin-2-yl)cyclopropanecarboxamide]
435 nM | 7730 nM and 1360 nM | NC(=O)C1CCN(Cc2ccc(-c3cccc4nc(NC(=O)C5CC5)nn34)cc2)CC1 [Compound 8]
334 nM | 849 nM | CC(=O)N1CCN(Cc2ccc(-c3cccc4nc(NC(=O)C5CC5)nn34)cc2)CC1 [Compound 9, N-(5-(4-((4-acetoylpiperazin-1-yl)methyl)phenyl)-[1,2,4]triazolo[1,5-a]pyridin-2-yl)cyclopropanecarboxamide]
